# In patent US20250042911A1, “NOVEL BENZOPYRAN DERIVATIVE AND USE THEREOF” (SPARK BIOPHARMA, INC, priority 2021, published 2025):
# Structures can show the parent of a compound that is named as a salt.
# Tested on: human M2 macrophages
# Test: Inhibition of human M2 macrophage activity, hCCL22 in culture supernatant by ELISA
# Type: cell-based
# Details: Macrophage, hCCL22 inhibitory activity at 10 μM, 72 hours
# Experimental: To obtain human M2 macrophages, human monocytes (THP-1 monocyte, CD4 expression) were stabilized in a 96-well plate for 24 hours and then incubated in culture media containing 100 ng/mL phorbal 12-myristate-13-acetate (PMA; Sigma, P8139) for 24 hours to differentiate into M0 macrophages (macrophage-like phenotype). It was confirmed that differentiated M0 macrophages had reduced CD4 expression and expressed CD11b. M0 macrophages in the plate well were washed once with culture media and incubated in culture media containing 25 ng/mL hIL-4 (Peprotech, 200-04-50) and 25 ng/mL hIL-13 (Peprotech, 200-13-50) for 72 hours to differentiate into M2-like macrophages. Test compounds were diluted by concentration in M2 differentiation media and treated simultaneously during a differentiation period of 72 hours. The inhibitory effect of the test compounds on M2 macrophages was determined by measuring hCCL22 in the medium culture supernatant cultured for 72 hours using an ELISA assay (R&D system, DMD00). The results of the activity measurements are represented in Table 3 (EC50), Table 4 ([…] inhibitory activity at 5 μM) and Table 5 (hCCL22 inhibitory activity at 10 μM).
row,Compound,inhibition at 10 µM [%]
1,"CCN(CC)c1ccc2c(c1)OC(C)(C)C1=CCn3c(=O)n(-c4ccc(C(C)=O)cc4)c(=O)n3C12 (stereo not drawn) [Example 33, 2-(4-acetylphenyl)-10-(diethylamino)-7,7-dimethyl-5,12b-dihydro-1H,7H-chromeno[4,3-c][1,2,4]triazolo[1,2-a]pyridazine-1,3(2H)-dione]",96.5
2,"CC(=O)c1ccc(-n2c(=O)n3n(c2=O)C2C(=CC3)C(CF)(CF)Oc3cc(O)ccc32)cc1 (stereo not drawn) [Example 2, 2-(4-acetylphenyl)-7,7-bis(fluoromethyl)-10-hydroxy-5,12b-dihydro-1H,7H-chromeno[4,3-c][1,2,4]triazolo[1,2-a]pyridazine-1,3(2H)-dione]",64.4
3,"CC(=O)c1ccc(-n2c(=O)n3n(c2=O)C2C(=CC3)C(C)(C)Oc3cc(NC(C)C)ccc32)cc1 (stereo not drawn) [Example 29, 2-(4-acetylphenyl)-10-(isopropylamino)-7,7-dimethyl-5,12b-dihydro-1H,7H-chromeno[4,3-c][1,2,4]triazolo[1,2-a]pyridazine-1,3(2H)-dione]",95.2
4,"CC(=O)c1ccc(-n2c(=O)n3n(c2=O)C2C(=CC3)C(C)(C)Oc3cc(N4CCN(C(C)=O)CC4)ccc32)cc1 (stereo not drawn) [Example 19, 2-(4-acetylphenyl)-10-(4-acetylpiperazin-1-yl)-7,7-dimethyl-5,12b-dihydro-1H,7H-chromeno[4,3-c][1,2,4]triazolo[1,2-a]pyridazine-1,3(2H)-dione]",18.8
5,"CC(=O)c1ccc(-n2c(=O)n3n(c2=O)C2C(=CC3)C(C)(C)Oc3cc(NS(C)(=O)=O)ccc32)cc1 (stereo not drawn) [Example 5, N-(2-(4-acetylphenyl)-7,7-dimethyl-1,3-dioxo-2,3,5,12b-tetrahydro-1H,7H-chromeno[4,3-c][1,2,4]triazolo[1,2-a]pyridazin-10-yl)methanesulfonamide]",42.3

# Same assay, conditions: Macrophage, hML22 inhibitory activity at 5 μM, 72 hours
row,Compound,inhibition at 5 µM [%]
1,"CC(=O)c1ccc(-n2c(=O)n3n(c2=O)C2C(=CC3)C(C)(C)Oc3cc(O)c(OC(F)(F)F)cc32)cc1 (stereo not drawn) [Example 25, 2-(4-acetylphenyl)-10-hydroxy-7,7-dimethyl-11-(trifluoromethoxy)-5,12b-dihydro-1H,7H-chromeno[4,3-c][1,2,4]triazolo[1,2-a]pyridazine-1,3(2H)-dione]",42

# Same assay, conditions: hCCL22 secretion, THP-1 derived M2-like macrophages, compound present during 72 hours of differentiation
row,EC50 [µM],Compound
1,5.8,"CCN(CC)c1ccc2c(c1)OC(C)(C)C1=CCn3c(=O)n(-c4ccc(C(C)=O)cc4)c(=O)n3C12 (stereo not drawn) [Example 33, 2-(4-acetylphenyl)-10-(diethylamino)-7,7-dimethyl-5,12b-dihydro-1H,7H-chromeno[4,3-c][1,2,4]triazolo[1,2-a]pyridazine-1,3(2H)-dione]"
2,14.7,"CC(=O)c1ccc(-n2c(=O)n3n(c2=O)C2C(=CC3)C(C)(C)Oc3c2cc(Cl)c(NC(C)C)c3Cl)cc1 (stereo not drawn) [Example 37, 2-(4-acetylphenyl)-9,11-dichloro-10-(isopropylamino)-7,7-dimethyl-5,12b-dihydro-1H,7H-chromeno[4,3-c][1,2,4]triazolo[1,2-a]pyridazine-1,3(2H)-dione]"
3,3.3,"CC(=O)c1ccc(-n2c(=O)n3n(c2=O)C2C(=CC3)C(C)(C)Oc3cc(NC(C)C)ccc32)cc1 (stereo not drawn) [Example 29, 2-(4-acetylphenyl)-10-(isopropylamino)-7,7-dimethyl-5,12b-dihydro-1H,7H-chromeno[4,3-c][1,2,4]triazolo[1,2-a]pyridazine-1,3(2H)-dione]"
4,8.2,"CC(=O)c1ccc(-n2c(=O)n3n(c2=O)C2C(=CC3)C(C)(C)Oc3cc(NCC(F)(F)F)ccc32)cc1 (stereo not drawn) [Example 17, 2-(4-acetylphenyl)-7,7-dimethyl-10-((2,2,2-trifluoroethyl)amino)-5,12b-dihydro-1H,7H-chromeno[4,3-c][1,2,4]triazolo[1,2-a]pyridazine-1,3(2H)-dione]"

row,Compound,EC50 [µM]
1,"CC(=O)c1ccc(-n2c(=O)n3n(c2=O)C2C(=CC3)C(C)(C)Oc3cc(OC(=O)N4CCN(C(=O)CN(C)C)CC4(C)C)ccc32)cc1 (stereo not drawn) [Example 119, 2-(4-acetylphenyl)-7,7-dimethyl-1,3-dioxo-2,3,5,12b-tetrahydro-1H,7H-chromeno[4,3-c][1,2,4]triazolo[1,2-a]pyridazin-10-yl 4-(dimethylglycyl)-2,2-dimethylpiperazine-1-carboxylate hydrochloride]",9.5
2,"CC1(C)Oc2cc(OP(=O)(O)O)ccc2C2C1=CCn1c(=O)n(-c3ccc(C(F)(F)F)cc3)c(=O)n12 (stereo not drawn) [Example 142, 7,7-dimethyl-1,3-dioxo-2-(4-(trifluoromethyl)phenyl)-2,3,5,12b-tetrahydro-1H,7H-chromeno[4,3-c][1,2,4]triazolo[1,2-a]pyridazin-10-yl dihydrogen phosphate]",6.3
